Source: patent US10988533B2, “Anti-pre-BCR antagonists and methods” (STC.UNM, priority 2015, dated 2021)

How the values were obtained:
[1] = target: T1, pre-BCR on 697 cells (Homo sapiens, UniProt P12018); assay: Single Particle Tracking of pre-BCR diffusion on 697 cells; type: cell-based; settings: Fab 1 μM, galectin-1 10 μM; for overall diffusion (mobility) of pre-BCR: relative to tonic signaling, inhibitors 1 μM
T1 construct: endogenous in cells; host or cells: 697 (BCP-ALL cell line)
T1 sequence (P12018 20-145): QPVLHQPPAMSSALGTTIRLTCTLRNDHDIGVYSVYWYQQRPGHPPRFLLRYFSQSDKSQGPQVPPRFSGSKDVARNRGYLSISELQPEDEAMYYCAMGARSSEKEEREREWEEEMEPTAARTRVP
Procedure: Data are reported as changed in ensemble diffusion coefficients (MSD) for pre-BCR plus and minus saturating levels of anti-VpreB1 Fabs (1 μM). In these experiments, Fabs were added to 697 cells for 15 minutes at 37° C. prior to performing Single Particle Tracking (SPT).
Suspension cultures of BCP-ALL cell lines (697, Nalm6) were grown in RPMI 1640 with phenol red (Sigma-Aldrich, St. Louis, Mo.), with 10% (v/v) HI FBS, 1% Penicillin/Streptomycin (Gibco, Gaithersburg, Md.), and L-Glutamine 2 mM. Patient samples were cultured in IMDM, GlutaMAX medium (Gibco, Gaithersburg, Md.) supplemented with 20% (v/v) HI FBS, 1% penicillin/streptomycin, 1× insulin, transferrin and selenium (Gibco, Gaithersburg, Md.), 1 mM sodium pyruvate (Gibco, Gaithersburg, Md.), and 55 μM 2-Mercaptoethanol (Gibco, Gaithersburg, Md.). Prior to experiments, cells were washed twice with Tyrode's solution (Sigma-Aldrich, St. Louis, Mo.). Unless otherwise stated, cells were pretreated for 10 minutes with Bay-61-3606 (Santa Cruz Biotechnology, Inc., Dallas, Tex.; 1 μM), dasatinib (Santa Cruz Biotechnology, Inc., Dallas, Tex.; 1 μM), tofacitinib (Selleck Chemicals LLC, Houston, Tex.; 1 μM), anti-VpreB Fab (1 μM), 3AC (Echelon Biosciences, Inc., Salt Lake City, Utah), and/or recombinant galectin-1 (PreproTech, Inc., Rocky Hill, N.J.; 10 μM), +/− lactose.
LAB-TEK imaging chambers (ThermoFisher Scientific, Waltham, Mass.) were coated with poly-1-lysine hydrobromide (Sigma-Aldrich, St. Louis, Mo.) at 1 mg/ml in sterile water for 20 minutes at room temperature, followed by three washes. BCP-ALL cells were serum-starved in RPMI 1640 without FBS for two hours prior to being added to coated wells and incubated for 15 minutes at 37° C. QD-Fab-CD79b or QD-Fab-IgM were added at 100 pM in Tyrodes's solution (Sigma-Aldrich, St. Louis, Mo.) with 0.1% (w/v) BSA and 20 mM glucose for 10-15 minutes at 37° C.
All corresponding GPU single particle tracking and track elongation, squared displacement, mean square displacement, correlated motion, fiducial data acquisition and image registration and three-state hidden Markov Model used in this study have been described in detail previously (Low-Nam et al, 2011, Nat Struct Mol Biol 18:1244-1249).

[2] = tested on: pre-BCR signaling in 697 cells; assay: Western blotting of pre-BCR tonic signaling (phospho-CD79a, phospho-Syk) with pervanadate; type: cell-based, human; settings: for accumulation of phospho-Syk (Syk phosphorylation): in the presence of pervanadate, 30-minute treatment
Procedure: (§1) Results in FIG. 8 evaluate the ability of anti-VpreB Fabs, as well as inhibitors directed at pre-BCR downstream signaling partners Lyn, Syk and SHIP1 (INPP5D), to block tonic signaling from the pre-BCR.
(§2) After stated incubation +/− inhibitors or crosslinking agents, cells were washed with ice-cold PBS and held for 15 minutes on ice in Tris-based lysis buffer, with 1% NP-40 and protease and phosphatase inhibitors (ThermoFisher Scientific, Waltham, Mass.). For effects of inhibitors on BCL6 expression, treatments were carried out for 24 hours. Lysates were clarified by centrifugation at 14,000×g for 10 minutes at 4° C., then added to Laemmli's Reducing buffer. Proteins were separated on SDS-polyacrylamide and transferred to nitrocellulose membranes. After blocking with TBST (Sigma-Aldrich, St. Louis, Mo.) with 5% BSA (Sigma-Aldrich, St. Louis, Mo.), blots were probed with antibodies specific to pCD79a (Tyr 182) (Cell Signaling Technology, Inc., Danvers, Mass.), pSyk (Tyr348) (Novus Biologicals LLC, Littleton, Colo.), pSyk (Tyr 352) (Cell Signaling Technology, Inc., Danvers, Mass.) or BCL6 (Santa Cruz Biotechnology, Inc., Dallas, Tex.). Antibodies to β-Actin (Sigma-Aldrich, St. Louis, Mo.) were used as loading controls.
BCP-ALL cells were treated with pervanadate solution as previously described (Imbert et al., 1994, Biochem J297 (Pt 1):163-173; Smrz et al., 2008, J Biol Chem 283:10904-10918). Data in FIG. 8 are reported using a linear range normalization from 0 to 1.0, whereby tonic without pervanadate treatment response was set to 0 and tonic pervanadate treatment was set to 1.0: […]

[3] = tested on: BCL6 expression in 697 cells; assay: Western blotting of BCL6 expression in 697 cells; type: cell-based, human; settings: overnight (24 hours) treatment
Procedure: as §1, §2

[4] = tested on: 697 cells; assay: flow cytometry apoptosis assay (Annexin-V / 7-AAD), 697 cells; type: cell-based, human; settings: for apoptosis in cells treated with vincristine over a range of doses: inhibitor in combination with vincristine
Procedure: Since blocking pre-BCR pro-survival signaling may be advantageous for chemo-sensitization, one can compare apoptosis alone or in combination with a sub-lethal dose of a chemotherapeutic such as, for example, vincristine or daunorubicin.
Curves were fit using sigmoidal dose-response curve using MATLAB curve fitting toolbox (The MathWorks, Inc., Natick, Mass.).
Leukemia cell apoptosis was measured based upon binding to Annexin-V-FITC (BioLegend, Inc., San Diego, Calif.) and loss of cell viability measured by 7-AAD labeling (BioLegend, Inc., San Diego, Calif.), according to manufacturer's procedures. For receptor-binding experiments, cells were incubated under saturating conditions for 1.5 hours on ice in PBS with anti-CD79b-APC antibody (BioLegend, Inc., San Diego, Calif.) or anti-VpreB-PE antibody (BioLegend, Inc., San Diego, Calif.). […] (Bangs Laboratories, Inc., Fishers, Ind.) beads with anti-mouse Fc antibody according to manufacturer's instruction. Dissociation constants were estimated with nonlinear regression analysis under KD controlled conditions as described (Drake, A. W., and S. L. Klakamp, 2007, J Immunol Methods 318:147-152). All flow cytometry data collection was conducted on the […] platform (IntelliCyt Corp., Albuquerque, N. Mex.; Edwards et al., 2009, Methods Mol Biol 486:151-165) and analyzed with the FLOWJO Software Suite (FlowJo, LLC, Ashland, Oreg.).

[5] = target: T2, pre-BCR on 697 cells (Homo sapiens, UniProt P12018+P15814); assay: fluorescence imaging of pre-BCR clustering by labeled galectin-1; type: cell-based; settings: Alexa 555-conjugated galectin-1 10 μM, within five minutes
T2 construct: endogenous in cells; host or cells: 697 (BCP-ALL cell line)

[6] = tested on: patient #280 BCP-ALL blasts; assay: flow cytometry apoptosis assay (Annexin-V / 7-AAD), patient #280 cells; type: cell-based, human; settings: patient #280 blasts, single agent, 24-hour culture (dasatinib 10 μM)
Procedure: Blockade of pre-BCR homotypic self-association can sensitize patient cells to vincristine. […] Blasts from patient #280 also were very sensitive to dasatinib as a single agent (80% 7-AAD/Annexin-V positive after 24-hour culture). Longer incubations were not feasible, since cells from this patient were 40% 7-AAD positive when incubated with no drug or in the presence of vincristine up to 5 ng/ml.
Leukemia cell apoptosis was measured based upon binding to Annexin-V-FITC (BioLegend, Inc., San Diego, Calif.) and loss of cell viability measured by 7-AAD labeling (BioLegend, Inc., San Diego, Calif.), according to manufacturer's procedures. For receptor-binding experiments, cells were incubated under saturating conditions for 1.5 hours on ice in PBS with anti-CD79b-APC antibody (BioLegend, Inc., San Diego, Calif.) or anti-VpreB-PE antibody (BioLegend, Inc., San Diego, Calif.). Flow results were calibrated using QUANTUM SIMPLY CELLULAR (Bangs Laboratories, Inc., Fishers, Ind.) beads with anti-mouse Fc antibody according to manufacturer's instruction. […] All flow cytometry data collection was conducted on the HYPERCYT platform (IntelliCyt Corp., Albuquerque, N. Mex.; Edwards et al., 2009, Methods Mol Biol 486:151-165) and analyzed with the FLOWJO Software Suite (FlowJo, LLC, Ashland, Oreg.).

[7] = tested on: BCL6 levels in patient #280 cells; assay: Western blotting of BCL6 levels in patient #280 cells; type: cell-based, human; settings: 24 hours
Procedure: FIG. 14. Data showing that pre-BCR signaling contributes to survival of some BCP-ALL blasts. Data are shown for patient #280. A) Increase in apoptosis (Annexin labeling) and loss of cell viability (7AAD labeling) after prolonged incubation with dasatinib (10 μM) alone or in combination with vincristine over doses of 0.1 ng/ml to 100 ng/ml. B) Increase in apoptosis after 24-hour incubation of #280 patient cells with α-VpreB Fab (5 μM) alone or in combination with low dose vincristine (10 ng/ml).
After stated incubation +/− inhibitors or crosslinking agents, cells were washed with ice-cold PBS and held for 15 minutes on ice in Tris-based lysis buffer, with 1% NP-40 and protease and phosphatase inhibitors (ThermoFisher Scientific, Waltham, Mass.). For effects of inhibitors on BCL6 expression, treatments were carried out for 24 hours. Lysates were clarified by centrifugation at 14,000×g for 10 minutes at 4° C., then added to Laemmli's Reducing buffer. Proteins were separated on SDS-polyacrylamide and transferred to nitrocellulose membranes. […]

T2 sequence (P15814 38-213, one chain of several): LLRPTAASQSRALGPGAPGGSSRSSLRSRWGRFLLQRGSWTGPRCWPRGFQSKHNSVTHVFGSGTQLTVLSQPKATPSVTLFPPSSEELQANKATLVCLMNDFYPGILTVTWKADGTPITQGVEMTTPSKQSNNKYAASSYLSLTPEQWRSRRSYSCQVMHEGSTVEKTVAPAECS

overall diffusion (mobility) of pre-BCR [1] | Compound | accumulation of phospho-Syk (Syk phosphorylation) [2] | BCL6 expression [3] | apoptosis in cells treated with vincristine over a range of doses [4] | also measured
– | CC[C@]1(O)C[C@H]2CN(CCc3c([nH]c4ccccc34)[C@@](C(=O)OC)(c3cc4c(cc3OC)N(C=O)[C@H]3[C@@](O)(C(=O)OC)[C@H](OC(C)=O)[C@]5(CC)C=CCN6CC[C@]43[C@@H]65)C2)C1 [vincristine] | – | – | – | apoptotic cells ([4]; vincristine 10 ng/ml, with or without VpreB Fabs (5 μM)): 69.9%
far less mobile | galectin-1: recombinant human galectin-1, crosslinks pre-BCR via surrogate light chain | – | – | – | immobile fraction of pre-BCR (D<0.05 μm^2/sec) [1]: A large fraction of pre-BCR become essentially immobile; clustering of the pre-BCR [5]: marked clustering of the pre-BCR
overall increased mobility | COc1ccc(-c2cc3nccn3c(Nc3ncccc3C(N)=O)n2)cc1OC [Bay-61-3606] | – | – | potentiate apoptosis | diminished accumulation of Syk PY352 ([2]; pervanadate-treated): approximately 20%
– | Cc1nc(Nc2ncc(C(=O)Nc3c(C)cccc3Cl)s2)cc(N2CCN(CCO)CC2)n1 [dasatinib] | – | – | – | 7-AAD/Annexin-V positive [6]: 80%
– | CC(C)CCC[C@@H](C)[C@H]1CC[C@H]2[C@@H]3CC[C@H]4C[C@H](N)CC[C@]4(C)[C@H]3CC[C@]12C [3AC, 3-a-aminocholestane] | slightly elevated | completely repressed | potentiate apoptosis | BCL6 levels [7]: marked decline

Compound | overall diffusion (mobility) of pre-BCR [1] | accumulation of phospho-Syk (Syk phosphorylation) [2] | BCL6 expression [3] | apoptosis in cells treated with vincristine over a range of doses [4] | also measured
C[C@@H]1CCN(C(=O)CC#N)C[C@@H]1N(C)c1ncnc2[nH]ccc12 [tofacitinib] | not Jak (tofacitinib) results in a global increase | did not alter | elevated levels | potentiate apoptosis | –
